Legend:
[1] = test system: HCV replicon cell line (Huh-7); experiment: Alamar Blue cytotoxicity assay step; format: cell-based
[2] = test system: HCV replicon cell line (NS3 protein); experiment: Western analysis of NS3 protein in the HCV replicon cell line; format: cell-based, Hepatitis C virus
Procedure: Experiments were done in duplicate. Western analysis was performed according to the instructions for Amershams Chemiluminescence Immunology Kit (NEL105 Renaissance) using a Molecular Dynamics Storm 860 phosphoimager and associated software. The primary and secondary antibody dilutions were at 1 to 5,000. Antisera was generated by immunizing rabbits with purified NS3 protease made from an E. Coli expression vector encoding the first 181 amino acids of HCV 1a NS3 with subsequent boosts.
Bleeds were tested weekly and boosts continued until a positive signal on a control western was seen. Secondary antibody was a BioRad (#170–6515) Goat anti-Rabbit IgG HRP Conjugate. The protein samples for western analysis were from the same wells used for the FRET assay and were prepared by the addition of an equal volume of 2×SDS-PAGE buffer to the FRET assay mixture, heating and loading on a 10% gel for SDS-PAGE. Interferon alpha (IFN-α) was obtained from Sigma (#I-4276) and stored as recommended.

[3] = test system: HCV replicon cell line (HCV RNA); experiment: Quantitative RT-PCR of HCV RNA in the HCV replicon cell line
[4] = test system: HCV replicon cell line (NS3 protease activity); experiment: HCV replicon FRET assay (NS3 protease activity as indirect measure of HCV RNA replication)
Procedure: The HCV replicon cell line was isolated from colonies as described by Lohman et al. al. (Lohman, supra) and used for all experiments.
These cell lines were maintained at 37° C., 5% CO2, 100% relative humidity in DMEM (Life Technologies #11965-084) with 10% heat inactivated calf serum (Sigma #F-2442), 100 U/ml of penicillin/streptomycin (Life Technologies #15140-122), Geneticin at 1 mg/ml (Life Technologies #10131-027). One of the cell lines which had approximately 3,000 copies of HCV replicon RNA/cell was used for development of the assay.
To perform the HCV FRET screening assay, 96-well cell culture plates were used.
The assay reagent was made as follows: 5× cell Luciferase cell culture lysis reagent from Promega (#E153A) diluted to 1× with dH2O, NaCl added to 150 mM final, the FRET peptide diluted to 20 uM final from a 2 mM stock. Cells were trypsinized, placed into each well of a 96-well plate and allowed to attach overnight. The next day, the test compounds were added to columns 1 through 10; column 11 was media only, and column 12 contained a titration of interferon as a control (1000 units for A12, B12, 100 units for C12, D12, 10 units for E12, F12 and 1 unit for G12, H12). In addition, replicon cells in A12, B12 can be replaced, if desired, with naïve Huh-7 cells as a negative background control. The plates were then placed back in the incubator.
Subsequent to addition of the test compounds described above (FRET Assay Preparation), at various times the plate was removed and Alamar Blue solution (Trek Diagnostics, #00–100) was added per well as a measure of cellular toxicity.
Compound analysis was determined by quantification of the relative HCV replicon inhibition and the relative cytotoxicity values.

[5] = FIG. 6A, titration 0.1 to 1,000 units per milliliter, 96 hours of incubation
[6] = interferon titration in HCV replicon cell line

Substance: interferon-α [IFN-α]
- cytotoxicity (Alamar Blue) ([1]; highest concentration of IFN-α, 1000 units, FIG. 7B wells A12 and B12): Approximately 18%
- cytotoxicity (Alamar Blue), in words ([1]; lower concentrations of IFN-α (below 1000 units)): no apparent Alamar Blue staining change
- EC50, Western [2, 5]: 1.9 units of IFN-α per milliliter
- EC50, western assay [2, 6]: 1.9 units
- EC50, RT-PCR [3, 5]: 5.3 units of IFN-α per milliliter
- EC50, qRT-PCR assay [3, 6]: 5.3 units
- EC50, FRET [4, 5]: 2.9 units of IFN-α per milliliter
- EC50, FRET assay [4, 6]: 2.9 units
- EC50 in IFN-α control samples of the compound plate, in words ([4]; random compound plate control titration 1000, 100, 10, 1 units, FIG. 7A): close to or slightly lower than the lowest concentration of IFN-α used
